# Measurements: patent publication US12246008B2, “4-amino or 4-alkoxy-substituted aryl sulfonamide compounds with selective activity in voltage-gated sodium channels” (Merck Sharp & Dohme LLC, priority 2018, dated 2025)
# Read-outs that look alike come from different tables or passages of the source.
# What was measured:
# Test in all cases: Qube automated patch-clamp assay, inhibition of sodium current
# Type in all cases: cell-based
# [1] = target: T1, human Nav1.7 channels stably expressed in HEK 293 cells (Homo sapiens, UniProt Q15858); settings: max concentration tested 33750 nM, read-out: NaV1.7 (nM)
# T1 construct: expressed in transfected cells; host or cells: HEK 293
# T1 sequence (Q15858 whole entry): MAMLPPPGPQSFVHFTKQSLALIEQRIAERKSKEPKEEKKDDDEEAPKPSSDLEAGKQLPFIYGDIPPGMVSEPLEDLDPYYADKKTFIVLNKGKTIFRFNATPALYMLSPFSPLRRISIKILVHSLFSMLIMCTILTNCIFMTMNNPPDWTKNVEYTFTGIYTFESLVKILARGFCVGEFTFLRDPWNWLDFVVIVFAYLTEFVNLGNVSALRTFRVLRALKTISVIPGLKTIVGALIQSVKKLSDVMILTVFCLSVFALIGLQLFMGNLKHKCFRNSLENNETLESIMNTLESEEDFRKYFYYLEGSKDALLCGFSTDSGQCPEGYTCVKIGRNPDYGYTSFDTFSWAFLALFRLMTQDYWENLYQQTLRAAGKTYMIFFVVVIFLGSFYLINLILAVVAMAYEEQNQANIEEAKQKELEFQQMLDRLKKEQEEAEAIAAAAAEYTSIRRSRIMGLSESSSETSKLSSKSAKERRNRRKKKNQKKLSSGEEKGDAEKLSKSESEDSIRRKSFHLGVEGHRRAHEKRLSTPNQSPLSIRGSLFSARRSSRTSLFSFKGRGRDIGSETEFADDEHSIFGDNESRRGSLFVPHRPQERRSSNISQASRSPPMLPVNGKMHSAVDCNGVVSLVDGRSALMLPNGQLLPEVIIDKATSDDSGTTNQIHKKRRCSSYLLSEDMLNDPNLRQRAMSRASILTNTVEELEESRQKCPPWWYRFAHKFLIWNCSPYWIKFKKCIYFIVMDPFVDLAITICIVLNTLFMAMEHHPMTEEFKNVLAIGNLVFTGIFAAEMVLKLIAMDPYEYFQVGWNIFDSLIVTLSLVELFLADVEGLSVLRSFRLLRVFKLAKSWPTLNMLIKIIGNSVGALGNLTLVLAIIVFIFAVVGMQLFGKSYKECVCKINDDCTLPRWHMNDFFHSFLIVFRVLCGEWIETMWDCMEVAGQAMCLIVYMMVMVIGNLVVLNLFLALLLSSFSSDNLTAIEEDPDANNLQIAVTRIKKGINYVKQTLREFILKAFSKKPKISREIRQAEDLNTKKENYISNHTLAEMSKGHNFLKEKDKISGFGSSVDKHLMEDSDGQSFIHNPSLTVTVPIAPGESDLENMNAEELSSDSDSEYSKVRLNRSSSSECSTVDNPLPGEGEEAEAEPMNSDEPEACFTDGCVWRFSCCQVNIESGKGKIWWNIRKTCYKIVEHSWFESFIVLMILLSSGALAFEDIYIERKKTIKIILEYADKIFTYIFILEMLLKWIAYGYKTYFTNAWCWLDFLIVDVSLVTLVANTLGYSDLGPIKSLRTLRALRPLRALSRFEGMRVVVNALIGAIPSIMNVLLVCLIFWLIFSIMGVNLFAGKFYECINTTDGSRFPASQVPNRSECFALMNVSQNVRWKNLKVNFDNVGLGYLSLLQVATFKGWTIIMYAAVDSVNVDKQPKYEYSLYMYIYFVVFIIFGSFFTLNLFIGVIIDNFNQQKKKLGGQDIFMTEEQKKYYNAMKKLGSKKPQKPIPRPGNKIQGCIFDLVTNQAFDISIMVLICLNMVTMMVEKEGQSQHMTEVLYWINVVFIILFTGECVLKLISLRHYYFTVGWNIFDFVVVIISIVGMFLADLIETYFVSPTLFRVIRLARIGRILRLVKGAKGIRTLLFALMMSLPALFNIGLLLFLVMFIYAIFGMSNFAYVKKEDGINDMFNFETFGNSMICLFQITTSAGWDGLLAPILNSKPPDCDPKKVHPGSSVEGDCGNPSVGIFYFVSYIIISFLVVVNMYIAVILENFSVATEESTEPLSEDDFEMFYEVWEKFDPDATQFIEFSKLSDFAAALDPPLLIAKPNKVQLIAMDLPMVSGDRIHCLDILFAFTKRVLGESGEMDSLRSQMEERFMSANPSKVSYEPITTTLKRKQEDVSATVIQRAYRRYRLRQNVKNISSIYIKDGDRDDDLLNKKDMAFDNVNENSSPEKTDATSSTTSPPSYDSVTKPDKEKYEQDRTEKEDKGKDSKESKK
# Procedure: (§1) Qube™ Experimental Procedure:
# (§2) Compounds were tested on human Nav1.7 and Nav1.6 channels stably expressed in HEK 293 cells. […] Cells were sealed on a planar substrate using the multihole technology. Cells expressing human Nav1.7 channels were held at −75 mV or −80 mV. Cells expressing human Nav1.6 channels were held at −65 mV. A train of 6 consecutive test pulses to −10 mV, preceded by 8 s prepulses to −115 mV, was applied at a frequency of 0.1 Hz before and after compound addition. Cells in each Qchip well were incubated in compound for 5 minutes before measuring inhibition. Peak currents were measured in control conditions and after compound addition. The following recording solutions were used (mM). External Nav1.6: 150 NaCl, 2 CaCl2), 5 KCl, 1 Mg Cl2, 10 HEPES, 12 Dextrose; external Nav1.7: 40 NaCl, 120 NMDG, 1 KCl, 0.5 MgCl2, 5 HEPES, 2.7 CaCl2); internal: 120 CsF, 30 CsCl, 10 EGTA, 5 HEPES, 5 NaF, 2 MgCl2. Compounds were prepared as 10 mM stock solutions in DMSO. 10 point compound titrations were generated using the Echo acoustic liquid handling instrument and glass coated 384 well plates. The final DMSO concentration in the assay was 0.3%. For all electrophysiology experiments, offline analysis was used to determine percent inhibition as a function of drug concentration. IC50 values were determined by fitting to the Hill equation.
# (§3) The various compounds in EXAMPLES 1 through 43 and TABLE 2 exemplified above were assayed for activity and selectivity using the foregoing Qube® technique. The results are reported in TABLE 3 in a format expressing the identification of the compound with reference EXAMPLE followed by the observed potency in nM for NaV1.7, NaV1.6 and NaV1.5. NA signifies not applicable and the max concentration tested is 33750 nM.
# [2] = target: T2, human Nav1.6 channels stably expressed in HEK 293 cells (Homo sapiens, UniProt Q9UQD0); settings: holding potential −65 mV; max concentration tested 33750 nM
# T2 construct: expressed in transfected cells; host or cells: HEK 293
# T2 sequence (Q9UQD0 whole entry): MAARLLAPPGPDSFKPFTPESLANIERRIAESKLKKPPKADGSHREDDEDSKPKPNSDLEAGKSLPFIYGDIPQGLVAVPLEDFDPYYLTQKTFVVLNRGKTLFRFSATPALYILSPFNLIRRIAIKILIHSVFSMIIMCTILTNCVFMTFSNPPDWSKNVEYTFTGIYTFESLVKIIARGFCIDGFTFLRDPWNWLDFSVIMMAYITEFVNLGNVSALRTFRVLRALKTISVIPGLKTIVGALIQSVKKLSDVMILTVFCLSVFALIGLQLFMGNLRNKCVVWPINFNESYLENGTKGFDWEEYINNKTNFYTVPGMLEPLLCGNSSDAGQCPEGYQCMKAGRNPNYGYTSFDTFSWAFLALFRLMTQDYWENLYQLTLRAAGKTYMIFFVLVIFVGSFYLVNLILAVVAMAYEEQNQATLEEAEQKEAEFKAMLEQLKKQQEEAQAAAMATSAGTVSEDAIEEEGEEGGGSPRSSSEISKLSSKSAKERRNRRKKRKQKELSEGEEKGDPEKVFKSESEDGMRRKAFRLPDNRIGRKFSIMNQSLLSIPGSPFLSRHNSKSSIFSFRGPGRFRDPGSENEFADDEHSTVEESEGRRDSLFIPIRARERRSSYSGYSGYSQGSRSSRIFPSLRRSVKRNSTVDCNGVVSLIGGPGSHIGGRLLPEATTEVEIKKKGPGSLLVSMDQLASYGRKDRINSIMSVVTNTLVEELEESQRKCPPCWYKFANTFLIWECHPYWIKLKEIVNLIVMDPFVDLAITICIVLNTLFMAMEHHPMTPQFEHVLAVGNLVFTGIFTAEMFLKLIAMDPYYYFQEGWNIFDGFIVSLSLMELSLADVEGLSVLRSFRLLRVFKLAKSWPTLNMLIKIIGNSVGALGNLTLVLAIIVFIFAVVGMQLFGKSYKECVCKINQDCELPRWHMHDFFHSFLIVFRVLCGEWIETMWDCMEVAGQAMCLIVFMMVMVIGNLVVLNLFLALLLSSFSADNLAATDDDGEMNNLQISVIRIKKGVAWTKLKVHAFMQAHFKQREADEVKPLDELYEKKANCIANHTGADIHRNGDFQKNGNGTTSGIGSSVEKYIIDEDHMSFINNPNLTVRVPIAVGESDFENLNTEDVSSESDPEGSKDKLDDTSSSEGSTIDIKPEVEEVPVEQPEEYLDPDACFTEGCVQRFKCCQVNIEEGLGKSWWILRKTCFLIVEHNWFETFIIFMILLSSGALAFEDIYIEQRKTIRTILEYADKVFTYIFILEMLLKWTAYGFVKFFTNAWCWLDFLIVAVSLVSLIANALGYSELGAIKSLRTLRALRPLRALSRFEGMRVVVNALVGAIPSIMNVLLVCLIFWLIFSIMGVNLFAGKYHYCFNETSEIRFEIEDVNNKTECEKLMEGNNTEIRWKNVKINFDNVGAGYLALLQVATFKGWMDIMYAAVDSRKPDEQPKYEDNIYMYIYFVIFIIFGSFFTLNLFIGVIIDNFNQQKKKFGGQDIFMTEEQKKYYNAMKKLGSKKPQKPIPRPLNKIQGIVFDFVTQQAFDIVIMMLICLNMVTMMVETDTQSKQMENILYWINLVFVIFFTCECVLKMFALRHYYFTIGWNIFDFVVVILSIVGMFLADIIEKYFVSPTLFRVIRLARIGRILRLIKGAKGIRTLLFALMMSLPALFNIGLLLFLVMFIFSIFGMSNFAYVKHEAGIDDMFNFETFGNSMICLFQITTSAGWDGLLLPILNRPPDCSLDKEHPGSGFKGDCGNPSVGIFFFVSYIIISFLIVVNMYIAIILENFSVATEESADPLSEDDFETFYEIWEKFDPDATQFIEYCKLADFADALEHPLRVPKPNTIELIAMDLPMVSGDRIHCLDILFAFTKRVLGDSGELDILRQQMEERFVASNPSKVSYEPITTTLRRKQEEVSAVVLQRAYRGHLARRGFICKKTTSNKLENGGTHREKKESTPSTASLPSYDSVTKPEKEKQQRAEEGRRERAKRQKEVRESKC
# Procedure: as §1, §2, §3
# [3] = target: NaV1.5 (Homo sapiens, UniProt Q14524); settings: holding potential −80 mV; max concentration tested 33750 nM
# Procedure: as §2, §3
# [4] = holding potential −80 mV, −80 mV
# [5] = holding potential −75 mV, −75 mV
compound,measurement,setting,value
"C[C@@H](N)C(CNc1cc(F)c(S(=O)(=O)Nc2ncns2)cc1F)CC1NC2CCC1C2 (single isomer, unassigned) [Example 111]",IC50,[1]; [4],65 nM
same,IC50,[2],> 33800 nM
same,IC50,[3],13000 nM
"C[C@@H](N)C(CNc1cc(F)c(S(=O)(=O)Nc2ncns2)cc1F)CC1CCCCC1CCN (single isomer, unassigned) [Example 60]",IC50,[1]; [4],12 nM
same,IC50,[2],> 33800 nM
same,IC50,[3],20600 nM
"C[C@@H](N)[C@H](CNc1cc(F)c(S(=O)(=O)Nc2ncns2)cc1F)CC(N)CC(F)(F)F (single isomer, unassigned) [Example 85]",IC50,[1]; [5],72 nM
same,IC50,[2],> 33800 nM
same,IC50,[3],> 33800 nM
"C[C@@H](N)[C@@H](CC(C)(C)CCN)C1CCc2cc(S(=O)(=O)Nc3ncns3)c(F)cc2O1 (single isomer, unassigned) [Example 42]",IC50,[1]; [4],306 nM
same,IC50,[2],> 33800 nM
same,IC50,[3],> 33800 nM
"CC(C)N(CC(CNc1cc(F)c(S(=O)(=O)Nc2ncns2)cc1F)[C@@H](C)N)C[C@@H](C)N (single isomer, unassigned) [Example 38]",IC50,[1]; [5],109 nM
same,IC50,[2],> 33800 nM
same,IC50,[3],> 33800 nM
"C[C@@H](N)C(CNc1cc(F)c(S(=O)(=O)Nc2ncns2)cc1F)CC1CCCCC1CCN (single isomer, unassigned) [Example 65]",IC50,[1]; [4],271 nM
same,IC50,[2],> 33800 nM
same,IC50,[3],> 33800 nM
"CCC(CN)CC(CNc1cc(F)c(S(=O)(=O)Nc2ncns2)cc1F)[C@@H](C)N (single isomer, unassigned) [Example 93]",IC50,[1]; [5],16 nM
same,IC50,[2],> 33800 nM
same,IC50,[3],> 33800 nM
Cc1cc(NC[C@H](CC(C)(C)CCN)[C@@H](C)N)c(C#N)cc1S(=O)(=O)Nc1ncns1 [Example 68],IC50,[1]; [5],37 nM
same,IC50,[2],10100 nM
same,IC50,[3],> 33800 nM
"C[C@@H](N)[C@H](CNc1cc(F)c(S(=O)(=O)Nc2ncns2)cc1F)CC1(CCN)CCC1 [Example 10, 4-(((2S,3R)-3-amino-2-((1-(2-aminoethyl)cyclobutyl)methyl)butyl)amino)-2,5-difluoro-N-(1,2,4-thiadiazol-5-yl)benzenesulfonamide]",IC50,[1]; [5],8 nM
same,IC50,[2],> 33800 nM
same,IC50,[3],> 33800 nM
C[C@@H](N)[C@H](CNc1cc(F)c(S(=O)(=O)Nc2ncns2)cc1CO)CC(N)C1CC1 (stereo partly drawn) [Example 80],IC50,[1]; [5],71 nM
same,IC50,[2],> 33800 nM
same,IC50,[3],> 33800 nM
